“Also recorded” adds a separate entry of the source. Read-outs that look alike come from different tables or passages of the source.
What was measured:
HeLa cell = HeLa cell culture medium; cited from earlier work
CHO-K1 cells = conditions: copper-supplemented culture medium; cited from earlier work
[1] = tested on: Cytosolic and membrane-associated sialidase I; conditions: partially purified extracts from rat liver or rat skeletal muscle; cited from earlier work
[2] = tested on: CHO cells producing TNFR1-IgG1; assay type: cell-based, Chinese hamster; conditions: for SA content on day 9 / SA content on day 12 / Sialic Acid content on day 9 / Sialic Acid content on day 12: TNFR1-IgG1
Text: The Chinese hamster ovary (CHO)cell line used as the mammalian host cell line was derived from CHO DG44 cells. The gene encoding the soluble type 1 TNFR-IgG1 was introduced into CHO DG44 cells by transfection. This was accomplished using the calcium phosphate technique for introducing DNA into mammalian cells. Clones expressing the TNFR1-IgG1 were amplified in methotrexate yielding high expressing clones and subsequently adapted to serum free medium. These cells were under continuous selective pressure until transferred to nonselective medium for growth and expansion of the inoculum. To provide cells for TNFR1-IgG1 production cultures the cell population described above was expanded from the medium containing methotrexate by serial subcultivations in vessels of increasing volumes to growth medium containing no methotrexate. For these steps of the process the non selective growth medium was DMEM/HAM F-12 based formulation (see, for example, U.S. Pat. No. 5,122,469, herein incorporated by reference in its entirety) with modified concentrations of some components, such as glucose, amino acids, salts, sugar, vitamins glycine, hypoxanthine, and thymidine; recombinant human insulin, hydrolyzed peptone (Protease Peptone 2 or 3, Primatone HS or Primatone RL), a cell protective agent such as Pluronic F68 (pluronic polyol) or the equivalent; Gentamycin; and trace elements. The cultures were controlled at pH 7.2+/−0.4 by the use of CO2 gas (acid) and /or Na2CO3 (base). Temperature was controlled near 37° C. during the growth period. Dissolved oxygen was maintained above 5% of air saturation by direct sparging with air and/or oxygen gas. The growth phase for each culture was followed by a second phase or transition phase wherein culture parameters were changed from growth to production conditions. During this transition phase the temperature of the culture system was decreased, generally to about between 30 and 35° C. and usually about 33° C. Copper chloride was added to the culture medium. Product accumulated during the production phase was analyzed for sialic acid content. […] Sialic acid content was analyzed by the method of Warren, L. (1959) J. Biol. Chem. 234:1971-1975. or the method of Anumula, K. R. (1995) Anal. Biochem. 230:24-30. Glycoprotein production culture was inoculated at 0.2% packed cell volume (PCV). Cells were grown for about 2 days under optimal growth conditions (37° C., low osmolality). When reaching 1% PCV (after about 2 days) the culture conditions were changed from optimal growth to production conditions. This means that growth is slowed under these conditions. This change includes a temperature shift to 33° C. and the addition of a complex feed (a concentrated form of media components). Due to the toxic effects of copper additions higher than 0.2 mM under growth conditions copper additions in the production phase of the glycoprotein production process were investigated. In the process, maximal cell mass was reached after the fifth day in culture. Since significant desialyation occurs after the fifth day in culture and especially significant decrease after about the eighth day in culture (FIG. 1), copper additions of 0.5 and 1.0 mM at day 6 and day 8 of the culture were investigated (FIG. 6). Further experiments were run to test copper additions at other concentrations. 0.38 mM copper was added.

[3] = tested on: CHO cells producing TNFR1-IgG1; assay: Impact of CuCl2 on growth and viability of CHO cells under growth conditions; assay type: cell-based, Chinese hamster
Method: CuCl2 was added to the culture medium before inoculation with cells at concentrations from 0 to 3.2 mM. Inhibition of growth could be detected above 0.2 mM.
CuCl2 was added to the culture medium before inoculation with cells at concentrations from 0-3.2 mM. A toxic effect could be observed at concentrations above 0.2 mM. Concentrations above 0.4 mM lead to rapid cell death.
Since heavy metals such as copper are toxic the effects of CuCl2 concentrations from 0-5 mM on growth and viability of CHO cells at 37° C. and 33° C. incubation temperature producing a glycoprotein were investigated(FIGS. 3, 4 and 5). Toxic effects and growth inhibition could be detected above 0.2 mM CuCl2.

[4] = tested on: CHO cells producing TNFR1-IgG1; assay: Incubation of high cell concentration perfusion culture suspension in spinner flasks with CuCl2; assay type: cell-based, Chinese hamster; conditions: 1 mM and 5 mM CuCl2, 24 hours at 33° C.
Method: FIG. 2: Sialic acid (SA) content :of TNFR1-IgG1 after incubation of cell culture suspension taken from a perfusion culture at high cell concentration (6% packed cell volume, 77% viability at start of incubation) compared to starting sialic acid content before incubation. A sample of the perfusion culture was removed and incubated in spinner flasks containing 0, 1 mM and 5 mM CuCl2 for 24 hours at 33° C.
Sialic acid content was analyzed by the method of Warren, L. (1959) J. Biol. Chem. 234:1971-1975. or the method of Anumula, K. R. (1995) Anal. Biochem. 230:24-30.
To test the effect of CuCl2 on stabilization of the sialic acid content high cell concentration from a perfusion culture were incubated over night in spinner flasks with the addition 0, 1 and 5 mM CuCl2.

[5] = 0.5 and 1.0 mM CuCl2 added in production phase
[6] = copper 0.38 mM added on day 6, Table III
[7] = copper 0.5 mM added on day 6, Table II
[8] = copper 0.5 mM added on day 6, Table III
[9] = copper 0.5 mM added on day 8, Table II
[10] = copper 1.0 mM added on day 6, Table II
[11] = copper 1.0 mM added on day 8, Table II

## [Cu+2] [Cu^2+]
HeLa cell
  Copper ion concentrations that did not interfere with cell growth: 1-100 μm
CHO-K1 cells
  LD50: 126 µM
[1]
  Copper ion concentration at which sialidase I was inhibited: approximately 1 mM

## [Cl][Cu][Cl] [CuCl2]
[2]; [5]
  Culture performance and productivity: good culture performance and productivity
  Sialic acid content in production cultures: stabilized
[2]; [6]
  SA content on day 9: 5.5 mol/mol
  SA content on day 12: 4.9 mol/mol
  Product concentr. on day 9: 324 mg/L
  Product concentr. on day 12: 518 mg/L
[2]; [7]
  Sialic Acid content on day 9: 5.3 mol/mol
  Sialic Acid content on day 12: 4.9 mol/mol
  Product concentr. on day 9: 230 mg/L
  Product concentr. on day 12: 304 mg/L
[2]; [8]
  SA content on day 9: 5.3 mol/mol
  SA content on day 12: 5.0 mol/mol
  Product concentr. on day 9: 350 mg/L
  Product concentr. on day 12: 545 mg/L
[2]; [9]
  Sialic Acid content on day 9: 5.0 mol/mol
  Sialic Acid content on day 12: 5.0 mol/mol
  Product concentr. on day 9: 244 mg/L
  Product concentr. on day 12: 417 mg/L
[2]; [10]
  Sialic Acid content on day 9: 5.0 mol/mol
  Sialic Acid content on day 12: 5.0 mol/mol
  Product concentr. on day 9: 218 mg/L
  Product concentr. on day 12: 286 mg/L
[2]; [11]
  Sialic Acid content on day 9: 5.0 mol/mol
  Sialic Acid content on day 12: 5.0 mol/mol
  Product concentr. on day 9: 289 mg/L
  Product concentr. on day 12: 371 mg/L
[3]; 0-5 mM CuCl2
  Toxic effect at 37 versus 33° C. incubation temperature: very similar for 37 °C and 33 °C
[3]; added before inoculation, 0 to 3.2 mM (0-5 mM)
  CuCl2 concentration above which inhibition of growth could be detected: above 0.2 mM
[3]; conditions normally associated with cell growth
  Copper concentration above which cell death results: above 0.4 mM
[3]; growth conditions, added before inoculation
  CuCl2 concentration above which a toxic effect on viability could be observed: above 0.2 mM
[4]
  Stabilization of sialic acid content of TNFR1-IgG1: effective in stabilizing the sialic acid content in a dose dependent manner; also recorded: effective in stabilizing the SA content in a dose dependent manner
